In patent publication US20220265694A1, “COMPOSITIONS AND METHODS FOR TREATING AN INFECTION” (CMPD LICENSING, LLC, priority 2016, published 2022):
Where two headings read alike, the source gives them in different places.

Tests used:
[1] = system: Salmonella typhi; experiment: Expected efficacy of antibiotic agents; details: expected efficacy against Salmonella typhi; Gram: neg
[2] = system: Peptostreptococcus; experiment: Expected efficacy of antibiotic agents; details: expected efficacy against Peptostreptococcus; Gram: pos
[3] = system: Francisella tularensis
[4] = system: Acinetobacter calcoaceticus; experiment: Expected efficacy of antibiotic agents; details: expected efficacy against Acinetobacter calcoaceticus; Gram: neg
[5] = system: Moraxella catarrhalis; experiment: Expected efficacy of antibiotic agents; details: expected efficacy against Moraxella catarrhalis; Gram: neg
[6] = system: Neisseria meningitidis; experiment: Expected efficacy of antibiotic agents; details: expected efficacy against Neisseria meningitidis; Gram: neg
[7] = system: Proteus vulgaris; experiment: Expected efficacy of antibiotic agents; details: expected efficacy against Proteus vulgaris; Gram: neg
[8] = system: Pseudomonas aeruginosa; experiment: Expected efficacy of antibiotic agents; details: expected efficacy against Pseudomonas aeruginosa; Gram: neg
[9] = system: Citrobacter freundii; experiment: Expected efficacy of antibiotic agents; details: expected efficacy against Citrobacter freundii; Gram: neg
[10] = system: Escherichia coli; experiment: Expected efficacy of antibiotic agents; details: expected efficacy against Escherichia coli; Gram: neg
[11] = system: Streptococcus pyogenes; experiment: Expected efficacy of antibiotic agents; details: expected efficacy against Streptococcus pyogenes; Gram: pos
[12] = system: Acinetobacter baumannii; experiment: Expected efficacy of antibiotic agents; details: expected efficacy against Acinetobacter baumannii; Gram: neg
[13] = system: Enterobacter cloacae; experiment: Expected efficacy of antibiotic agents; details: expected efficacy against Enterobacter cloacae; Gram: neg
[14] = system: Chlamydia psittaci
[15] = system: Bartonella bacilliformis; experiment: Expected efficacy of antibiotic agents; details: expected efficacy against Bartonella bacilliformis; Gram: neg
[16] = system: Pseudomonas fluorescens; experiment: Expected efficacy of antibiotic agents; details: expected efficacy against Pseudomonas fluorescens; Gram: neg
[17] = system: Brucella species

Row | Compound | Efficacy [1] | Efficacy [2] | Efficacy ([3]; expected efficacy against Francisella tularensis, Gram: neg) | Efficacy [4] | Efficacy [5] | Efficacy [6] | Efficacy [7] | Efficacy [8] | Efficacy [9] | Efficacy [10] | Efficacy [11] | Efficacy [12] | Efficacy [13] | Efficacy ([14]; expected efficacy against Chlamydia psittaci, Gram: n/a) | Efficacy [3] | Efficacy [15] | Efficacy [16] | Efficacy [17] | Efficacy [14]
1 | CO/N=C(\C(=O)N[C@@H]1C(=O)N2C(C(=O)O)=C(CSc3nc(=O)c(=O)[nH]n3C)CS[C@H]12)c1csc(N)n1 [Ceftriaxone] | yes | yes | no | no | yes | yes | yes | no | yes | yes | yes | no | yes | no |  |  |  |  | 
2 | CN[C@H](CC(C)C)C(=O)N[C@H]1C(=O)N[C@@H](CC(N)=O)C(=O)N[C@H]2C(=O)N[C@H]3C(=O)N[C@H](C(=O)N[C@H](C(=O)O)c4cc(O)cc(O)c4-c4cc3ccc4O)[C@H](O)c3ccc(c(Cl)c3)Oc3cc2cc(c3O[C@@H]2O[C@H](CO)[C@@H](O)[C@H](O)[C@H]2O[C@H]2C[C@](C)(N)[C@H](O)[C@H](C)O2)Oc2ccc(cc2Cl)[C@H]1O [Vancomycin] | no | yes |  | no | no | no | no | no | no | no | yes | no | no |  | no | no | no | no | no
